Assay results: PubChem BioAssay AID2060905 (Molecular Pharmacology Branch, DTP, NCI, 2025)

System: 282377-053-R-J1-PDC complex spheroid viability
Test: Anticancer human tumor 282377-053-R-J1-PDC patient-derived colon adenocarcinoma cell line growth inhibition [RAS]
Conditions: for IC50: curve of first compound; for viability, T/C: stronger effect = lower value
Procedure, shortened: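 Agents were tested in combination matrices in half-log decrements from a top concentration at or near clinical Cmax (10 microM if undetermined). Targets were multi-cell spheroids of tumour lines plus HUVEC and MSC stromal cells.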

[1] = second compound 0.0316 µM, first compound 0.0316 µM
[2] = second compound 0.0316 µM, first compound 0.1 µM
[3] = second compound 0.0316 µM, first compound 0.316 µM
[4] = second compound 0.0316 µM, first compound 1 µM
[5] = second compound 0.0316 µM, first compound 3.16 µM
[6] = second compound 0.0316 µM, first compound 10 µM
[7] = second compound 0.1 µM, first compound 0.0316 µM
[8] = second compound 0.1 µM, first compound 0.1 µM
[9] = second compound 0.1 µM, first compound 0.316 µM
[10] = second compound 0.1 µM, first compound 1 µM
[11] = second compound 0.1 µM, first compound 3.16 µM
[12] = second compound 0.1 µM, first compound 10 µM
[13] = second compound 0.316 µM, first compound 0.0316 µM
[14] = second compound 0.316 µM, first compound 0.1 µM
[15] = second compound 0.316 µM, first compound 0.316 µM
[16] = second compound 0.316 µM, first compound 1 µM
[17] = second compound 0.316 µM, first compound 3.16 µM
[18] = second compound 0.316 µM, first compound 10 µM
[19] = second compound 1 µM, first compound 0.0316 µM
[20] = second compound 1 µM, first compound 0.1 µM
[21] = second compound 1 µM, first compound 0.316 µM
[22] = second compound 1 µM, first compound 1 µM
[23] = second compound 1 µM, first compound 3.16 µM
[24] = second compound 1 µM, first compound 10 µM
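Note: spheroids exposed to agents for seven days before readout.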
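Throughout, for viability, T/C: luminescence viability as percent of DMSO vehicle control wells.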

Q: Which results are given for CC1(O)CCCC1n1c(=O)c(C(F)F)cc2cnc(NC3CCN(S(C)(=O)=O)CC3)nc21 (centres undefined) + C#Cc1c(F)ccc2cc(O)cc(-c3ncc4c(N5CC6CCC(C5)N6)nc(OCC56CCCN5CC(F)C6)nc4c3F)c12?
A: IC50 (second compound 0.0316 µM): 6.26 µM; IC50 (second compound 0.1 µM): 6.08 µM; IC50 (second compound 0.316 µM): 6.1 µM; IC50 (second compound 1 µM): 6.13 µM; IC50 (second compound 3.16 µM): 6.17 µM; IC50 (second compound 10 µM): 6.21 µM; viability, T/C [1]: 102%; viability, T/C [2]: 115%; viability, T/C [3]: 135%; viability, T/C [4]: 121%; viability, T/C [5]: 121%; viability, T/C [6]: 2.6%; viability, T/C [7]: 109%; viability, T/C [8]: 117%; viability, T/C [9]: 128%; viability, T/C [10]: 125%; viability, T/C [11]: 111%; viability, T/C [12]: 3.18%; viability, T/C [13]: 117%; viability, T/C [14]: 126%; viability, T/C [15]: 120%; viability, T/C [16]: 108%; viability, T/C [17]: 112%; viability, T/C [18]: 3.11%; viability, T/C [19]: 98.9%; viability, T/C [20]: 111%; viability, T/C [21]: 123%; viability, T/C [22]: 110%; viability, T/C [23]: 122%; viability, T/C [24]: 3.32%; viability, T/C (second compound 3.16 µM, first compound 0.0316 µM): 94.4%; viability, T/C (second compound 3.16 µM, first compound 0.1 µM): 127%; viability, T/C (second compound 3.16 µM, first compound 0.316 µM): 130%; viability, T/C (second compound 3.16 µM, first compound 1 µM): 102%; viability, T/C (second compound 3.16 µM, first compound 3.16 µM): 113%; viability, T/C (second compound 3.16 µM, first compound 10 µM): 4.31%; viability, T/C (second compound 10 µM, first compound 0.0316 µM): 99%; viability, T/C (second compound 10 µM, first compound 0.1 µM): 117%; viability, T/C (second compound 10 µM, first compound 0.316 µM): 116%; viability, T/C (second compound 10 µM, first compound 1 µM): 121%; viability, T/C (second compound 10 µM, first compound 3.16 µM): 132%; viability, T/C (second compound 10 µM, first compound 10 µM): 2.84%

Q: What does the source list for CC(=O)OC12COC1CC(O)C1(C)C(=O)C(O)C3=C(C)C(OC(=O)C(O)C(NC(=O)OC(C)(C)C)c4ccccc4)CC(O)(C(OC(=O)c4ccccc4)C21)C3(C)C (centres undefined) + C=CC(=O)N1CCN(c2nc(OCC3CCCN3C)nc3c(F)c(-c4nc(N)cc(C)c4C(F)(F)F)c(Cl)cc23)C(C)C1?
A: IC50 (second compound 0.00316 µM): < 0.0316 µM; IC50 (second compound 0.01 µM): < 0.0316 µM; IC50 (second compound 0.0316 µM): < 0.0316 µM; IC50 (second compound 0.1 µM): < 0.0316 µM; IC50 (second compound 0.316 µM): < 0.0316 µM; IC50 (second compound 1 µM): < 0.0316 µM; viability, T/C (second compound 0.00316 µM, first compound 0.0316 µM): 24.3%; viability, T/C (second compound 0.00316 µM, first compound 0.1 µM): 19.9%; viability, T/C (second compound 0.00316 µM, first compound 0.316 µM): 16.3%; viability, T/C (second compound 0.00316 µM, first compound 1 µM): 29.4%; viability, T/C (second compound 0.00316 µM, first compound 3.16 µM): 39.7%; viability, T/C (second compound 0.00316 µM, first compound 10 µM): 54.2%; viability, T/C (second compound 0.01 µM, first compound 0.0316 µM): 25.9%; viability, T/C (second compound 0.01 µM, first compound 0.1 µM): 18%; viability, T/C (second compound 0.01 µM, first compound 0.316 µM): 22.7%; viability, T/C (second compound 0.01 µM, first compound 1 µM): 27.5%; viability, T/C (second compound 0.01 µM, first compound 3.16 µM): 38.6%; viability, T/C (second compound 0.01 µM, first compound 10 µM): 51.8%; viability, T/C [1]: 22.9%; viability, T/C [2]: 20.5%; viability, T/C [3]: 18.1%; viability, T/C [4]: 26.9%; viability, T/C [5]: 34.2%; viability, T/C [6]: 57.8%; viability, T/C [7]: 24.1%; viability, T/C [8]: 21.2%; viability, T/C [9]: 20.1%; viability, T/C [10]: 28.1%; viability, T/C [11]: 38.4%; viability, T/C [12]: 57.3%; viability, T/C [13]: 22%; viability, T/C [14]: 21.6%; viability, T/C [15]: 24.1%; viability, T/C [16]: 25.5%; viability, T/C [17]: 45.7%; viability, T/C [18]: 53.6%; viability, T/C [19]: 27.8%; viability, T/C [20]: 19.3%; viability, T/C [21]: 28.1%; viability, T/C [22]: 38%; viability, T/C [23]: 44%; viability, T/C [24]: 58.6%
